Test results reported in ChEMBL document CHEMBL4020775, “QSAR studies of the bioactivity of hepatitis C virus (HCV) NS3/4A protease inhibitors by multiple linear regression (MLR) and support vector machine (SVM)” (Bioorg Med Chem Lett, 2017).
pIC50, pKi: −log10 of the molar value.

Columns and labels:
[1] = Inhibition of HCV NS3/4A protease; parameters: species or system Hepacivirus hominis
[2] = Inhibition of HCV NS3/4A protease using AcDTEDVVP(Nva)-O-PAP as substrate pretreated with substrate for 3 mins followed by enzyme addition measured after 60 mins by spectrophotometric method; parameters: species or system Hepacivirus hominis

Cc1cnc(C(=O)N[C@H]2CCCCC/C=C\[C@@H]3C[C@@]3(C(=O)NS(=O)(=O)C3CC3)NC(=O)[C@@H]3C[C@@H](Oc4nc5ccccc5c5ccccc45)CN3C2=O)cn1 [PARITAPREVIR]
pIC50 [1]: 9.74

CC(C)(C)NC(=O)N[C@H](C(=O)N1C[C@H]2[C@@H]([C@H]1C(=O)NC(CC1CCC1)C(=O)C(N)=O)C2(C)C)C(C)(C)C (some centres undefined) [BOCEPREVIR]
pKi [2]: 7.85

CCC[C@H](NC(=O)[C@@H]1[C@H]2CCC[C@H]2CN1C(=O)[C@@H](NC(=O)[C@@H](NC(=O)c1cnccn1)C1CCCCC1)C(C)(C)C)C(=O)C(=O)NC1CC1 [TELAPREVIR]
pIC50 [1]: 5.99

C=C[C@@H]1C[C@]1(NC(=O)[C@@H]1C[C@@H](Oc2ncc(OC)c3ccc(Cl)cc23)CN1C(=O)[C@@H](NC(=O)OC(C)(C)C)C(C)(C)C)C(=O)NS(=O)(=O)C1CC1 [ASUNAPREVIR]
pIC50 [1]: 8.59
